≈ marks a conversion by molar mass, not a printed value.
Legend:
[1] = system: LNCaP (prostate carcinoma) cells; test: Cytotoxicity, Alamar blue assay, LNCaP cells; type: cell-based; settings: Homo sapiens, 24 h exposure
From the text: (§1) Normal human foreskin (BJ) fibroblasts and two types of cancer cells, namely A549 (lung adenocarcinoma) and LNCaP (prostate carcinoma) purchased from American Type Culture Collection (Manassas, VA, USA), were used in the experiments. Each cell line was maintained in a different culture medium, depending on the metabolic necessities of the cells. BJ cells were maintained in Dulbecco’s modified Eagle’s medium (DMEM) with low glucose. A549 cells were maintained in DMEM with high glucose […], while LNCaP cells were grown in Roswell Park Memorial Institute (RPMI) 1640 medium with high glucose (5 g/L). All media used were supplemented with 10% fetal bovine serum (FBS) and were refreshed every two days. Cells were used in experiments or subcultured when they reached 70–80% confluence.
(§2) In 100 µL in 96-well plates, a number of 30,000 LNCaP cells, 15,000 A549 cells, and 7500 normal (BJ) cells were seeded. Because the cells have different sizes and volumes, the purpose of the different seedings was to achieve a confluency of 70–80% after 24 h. All types of cells were further exposed to the synthesized compounds (5a–d and 6a–d) for 24 h, at a concentration ranging from 12.5 to 100 µg/mL. Post-exposure, the media were removed, and the cells were washed with phosphate buffer saline (PBS). Their viability was evaluated using Alamar blue (AB) assay as previously described. Briefly, the cells were incubated with a 200 µM resazurin solution for 4 h. Using a Synergy 2 multi-mode microplate reader, we measured the fluorescence. The measurement was performed at λexcitation = 530/25 nm; λemission = 590/35 nm. We conducted the experiments using three biological replicates, each one including 6 technical replicates. As negative controls (NC), cells exposed to culture medium containing 0.2% DMSO were used. Compared to the NC (100%), the results were expressed as relative values. We used IC50 values for the potency evaluation, and calculated them for each cell line, using the dose-effect curves obtained by fitting the experimental data with a 4-parameter logistic curve.
(§3) Mean values ± standard deviation (SD) values of at least three biological replicates were used to calculate experimental data. One-way analysis of variance (ANOVA) with a post hoc Holm–Sidak test was used to statistically examine the data. Using SigmaPlot 11.0 software (Systat, Software Inc., Chicago, IL, USA), we performed the graphical display and data analysis. From a statistical point of view, the results were considered different, at values of p < 0.05.

[2] = Ferric reducing antioxidant potential (FRAP) assay; parameters: concentration or dose not given beside the values; settings: for FRAP, % of Activity of Trolox: relative to Trolox; for FRAP, % of Activity of Ascorbic Acid: relative to ascorbic acid
Description: In the ferric reducing antioxidant potential (FRAP) assay, in comparison with a blank sample prepared from DMSO mixed with FRAP reagent, the absorbance of the solutions was measured at λ = 593 nm. The compounds were tested according to a modified method proposed initially by Benzie and Strain [31]. Using Equation (4), we calculated the reducing antioxidant potential of 5a–d and 6a–d as a percentage of the activity of the reference compounds:(4) % of control activity=sample absorbance/reference absorbance×100
Ferrous ions resulting from the reduction of ferric ions in the presence of an antioxidant compound form a blue-colored complex (Fe^2+-TPTZ) at pH = 3.6 with tripyridyltriazine (2,4,6-tris(2-pyridyl)-s-triazine). The intensity of the blue complex formed is proportional to the number of ferrous ions. Compounds 5a, 5c and 5d expressed a good electron donation capacity.

[3] = Cupric reducing antioxidant capacity (CUPRAC) assay; parameters: concentration or dose not given beside the values; settings: for CUPRAC, % of Activity of Trolox: relative to Trolox; for CUPRAC, % of Activity of Ascorbic Acid: relative to ascorbic acid
Description: The ability to donate electrons was evaluated for the compounds 5a–d and 6a–d, by the CUPRAC (CUPric reducing antioxidant capacity) method. The absorbance was measured against a blank sample, at λ = 450 nm. The assay was performed based on our group’s previous report by the adaptation of the initial report of Alam et al., Özyürek et al. and Apak et al.. With the use of Equation (4), the cupric ion reduction by compounds 5a–d and 6a–d was expressed as a percentage of the reference compound activity.
The Cu^2+ ions are reduced to Cu^+ ions by the electron-donating compounds. The Cu^+ ions are chelated by neocuproine, giving a colored complex with absorbance proportional to the quantity of Cu^+ ions that resulted.

[4] = Cu^2+ chelation assay (murexide competition)
From the text: With murexide as a chromophoric chelator, we performed the protocol followed for the evaluation of Cu^2+ chelating activities of the compounds using an adaptation of the method presented by Cesari et al. and Wu et al.. Using Equation (6), we calculated the copper chelation capacities of the 5a–d and 6a–d compounds:(6) copper chelation (%)=(A485/A520)control−(A485/A520)sample/(A485/A520)control×100
The evaluation of the Cu^2+ chelation activity of compounds was made based on the competition for Cu^2+ with murexide. The chelating activity of compounds for the cupric ions found in the current assay is significant for the pyrogallol derivatives, being quite close to EDTA-Na2.

[5] = DPPH˙ radical scavenging assay
Description: The stock solutions (1 mg/mL) of the tested compounds and the controls were obtained, by dissolving the substances in dimethyl sulfoxide (DMSO). Using Jasco V-530, an UV-VIS spectrophotometer (Jasco International Co., Ltd., Tokyo, Japan), we performed the colorimetric determinations in low-volume single-use 10 mm width cuvettes.
The assays were performed in triplicate and the results are presented as averages for each assay.
The DPPH˙ radical scavenging assay is based on the transfer of one hydrogen from the analyzed compound to the violet stable free radical DPPH˙ (2,2-diphenyl-1-picrylhydrazyl), as we convert it into a yellow compound. The absorbance of the reagent mixed with samples presented inversely proportional values to the amount of DPPH˙ neutralized. The absorbance of the reagent was measured at λ = 517 nm, according to our previous reports. The assay was made in the presence of various concentrations of samples. The used protocol is based on the report of Brand-Williams et al..

[6] = system: normal human foreskin fibroblasts (BJ); test: Cytotoxicity, Alamar blue assay, BJ cells; type: cell-based; settings: Homo sapiens, Fibroblast; 24 h exposure, Alamar blue
From the text: as §1, §2, §3

| IC50 [5] | IC50 (DPPH˙ scavenging) [5] | Structure (SMILES) | IC50 [1] | FRAP, % of Activity of Trolox [2] | FRAP, % of Activity of Ascorbic Acid [2] | CUPRAC, % of Activity of Trolox [3] | CUPRAC, % of Activity of Ascorbic Acid [3] | Cupric ions Chelation Capacity (%) ([4]; 3.36 µg/mL) | Cupric ions Chelation Capacity (%) ([4]; 8.40 µg/mL) | Cupric ions Chelation Capacity (%) ([4]; 16.80 µg/mL) | % of DPPH˙ Scavenging ([5]; 1.25 µg/mL) | % of DPPH˙ Scavenging ([5]; 2.5 µg/mL) | % of DPPH˙ Scavenging ([5]; 3.75 µg/mL) | % of DPPH˙ Scavenging ([5]; 5 µg/mL) | % of DPPH˙ Scavenging ([5]; 7.5 µg/mL) | % of DPPH˙ Scavenging ([5]; 10 µg/mL) | % of DPPH˙ Scavenging ([5]; 12.5 µg/mL) | % of DPPH˙ Scavenging ([5]; 15 µg/mL) | IC50 [6] |
| --- | --- | --- | --- | --- | --- | --- | --- | --- | --- | --- | --- | --- | --- | --- | --- | --- | --- | --- | --- |
| > 30 µM | >15 µg/mL | CCCCn1c(SCC(=O)NN=C(C)c2ccc(O)cc2O)nc2ccccc2c1=O [Compound 6d, 2-((3-butyl-4-oxo-3,4-dihydroquinazolin-2-yl)thio)-N’-(1-(2,4-dihydroxyphenyl)ethylidene)acetohydrazide] | 24.3 µg/mL | 27.95% | 24.36% | 11.25% | 11.80% | 5.98% | 11.84% | 20.42% | - (- represents less than 5%) | - (- represents less than 5%) | - (- represents less than 5%) | - (- represents less than 5%) | - (- represents less than 5%) | - (- represents less than 5%) | 10.99% | 13.87% | > 100 µg/mL |
| 4.93 µM | 2.18 µg/mL (≈ 4.93 µM) | CCCCn1c(SCC(=O)NN=Cc2ccc(O)c(O)c2O)nc2ccccc2c1=O [Compound 5d, 2-((3-Butyl-4-oxo-3,4-dihydroquinazolin-2-yl)thio)-N’-(2,3,4-trihydroxybenzylidene)acetohydrazide] | 56.8 µg/mL | 92.71% | 80.80% | 106.43% | 111.66% | 14.19% | 28.04% | 41.42% | 41.12% | 53.03% | 63.53% | 71.70% | 87.99% | + (+ represents more than 95%) | + (+ represents more than 95%) | + (+ represents more than 95%) | > 100 µg/mL |
| 7.6 µM | 3.62 µg/mL (≈ 7.6 µM) | O=C(CSc1nc2ccccc2c(=O)n1Cc1ccccc1)NN=Cc1ccc(O)c(O)c1O [Compound 5b, 2-((3-Benzyl-4-oxo-3,4-dihydroquinazolin-2-yl)thio)-N’-(2,3,4-trihydroxybenzylidene)acetohydrazide] | 70 µg/mL | 76.93% | 67.05% | 92.75% | 97.31% | 11.17% | 25.27% | 40.20% | 37.55% | 45.21% | 51.00% | 56.36% | 69.66% | 81.12% | + (+ represents more than 95%) | + (+ represents more than 95%) | > 100 µg/mL |
